This note sets out measurements from US4820707A, “2,6-piperazinedione compounds” (ADIR Et Cie, priority 1986, dated 1989).

Where a name gives a salt, the structure may show the parent alone.

What all share (format): in vivo
Test [1] is described as follows: Anxiolytic activity by the "staircase" test. Set-up: key to % variation in the steps climbed: NS: not significant. The conditions noted are these: rats. The source says:
The anxiolytic activity of the compounds of the invention was investigated in rats according to the method described by Thiebot, Soubrie and Boissier in J. Pharmacol. 1976, 7, (1), p. 87-102. In this test, behavior involving rearing movements is associated with a state of distress of the animal. The number of steps climbed represents the normal exploratory behavior of the rat introduced into the enclosure. Normally, an efficacious anxiolytic compound should decrease, during the test which lasts 3 minutes, the number of rearing movements without modifying the number of steps climbed, or on the contrary should increase this latter parameter.

The nature of test [2]: Anxiolytic activity by the four-plates test. The conditions noted are these: mice; for change in vivo at 5 mg/kg: 5 mg.kg^-1; for % increase in the responses: p.o. The method, then:
The anxiolytic activity of the compounds of the general formula I was investigated in mice according to the method of Aron Simon Larousse and Boissier described in Neuropharmacology (1971) 10 p. 459-469). After treatment of the animals by means of different doses of the compounds of the invention administered intraperitoneally or orally, the increase in the percentage of transitions during the exploration of the base of the test cage, in the presence of electric shocks, was assessed.

The nature of test [3]: Inhibition of the active conditioned avoidance response in rats. Particulars: i.p. The source says: The results obtained with the compounds of general formula I during the various experiments employing the method described by Courvoisier et al. in Arch. Int. Pharmacodyn., 1953, 92, p. 305-361 and by Janssen et al. in Arzneim, Forsch, 1965, 15, p.
A short description of test [4]: Inhibition of aggression in isolated and bulbectomized rats. The method, then: The inhibition of aggression was assessed according to the method described by Vergnes and Karli in C.R. Soc. Biol. 1963, 157, p. 1061. The effect on the aggression is assessed in terms of the percentage of animals which became non-killers after treatment.
Test [5] in a line: Anxiolytic activity by MacMillan's conflict test. The conditions noted are these: rats, i.p., vs physiological saline; for % variation in the unpunished responses: NS (not significant); for % variation in the punished responses: S (significant). The source says: In these conditioning experiments which operate in the presence of a food reward, performed in rats according to the method described by MacMillan in Fed. Proceedings, 1975, 34, (9), p. 1870-1879, two parameters in the animal's behavioral responses are considered. The first parameter is the variation in the level of punished responses, in the presence of an electric shock, under the influence of the treatment in comparison with the level of punished responses under the influence of physiological saline. The second parameter is the variation in the level of unpunished responses, without an electric shock, under the influence of the same treatment, in comparison with the level of unpunished responses when physiological saline is administered. A specific anxiolytic effect is established when, after the administration of a substance, the level of only the punished responses is increased.

A short description of test [6]: Inhibition of isolation-induced aggression in mice. The conditions noted are these: Mus musculus, ip, read-out: Inhibitory ED50 (effective dose inhibiting 50% of the aggressive animals). The source says:
The compounds of general formula I inhibit the attacking behavior of mice rendered aggressive by isolation according to the method described by Yen, Stanger and Millman in Arch. Int. Pharmacodyn. 1959, 123, p. 179-185.

Where [7] appears, read: Mus musculus, ip, i.p., read-out: % increase in the responses (transitions).
[8] abbreviates: Mus musculus, ip, i.p., 25 mg.kg^-1, read-out: % increase in the responses (transitions).
Setting [9] is: Mus musculus, ip, i.p., 10 mg.kg^-1, read-out: % increase in the responses (transitions).

Take `O=C1CN(Cc2ccccc2Cl)CC(=O)N1CCCN1CCN(c2cccc(C(F)(F)F)c2)CC1` [Example 4, 4-(2-Chlorobenzyl)-1-{3-[1-(3-trifluoromethylphenyl)-4-piperazinyl]propyl}-2,6-piperazinedione dimandelate]: in test [1] (i.p., 10 mg.kg^-1), the “% variation in the rearing movements” value is reported as -47% and the “% variation in the steps climbed” value is “NS”. Further, the change in vivo at 5 mg/kg in test [2] (setting [7]) turned out to be 37%. Besides, the change in vivo at 25 mg/kg in test [2] (setting [8]) was found to be 67%. Besides, the “% increase in the responses” value in test [2] (25 mg.kg^-1) is on record as 35%. For the same compound, in test [2] (50 mg.kg^-1), the “% increase in the responses” value is listed as 58%.

For `Cl.Cl.Cl.O=C1CN(Cc2ccccc2)CC(=O)N1CCCCN1CCN(c2ncccn2)CC1` [Example 5, 4-Benzyl-1-{4-[1-(2-pyrimidinyl)-4-piperazinyl]butyl}-2,6-piperazinedione trihydrochloride], in test [1] (i.p., 1,25 mg.kg^-1), the “% variation in the rearing movements” value was -40% and the “% variation in the steps climbed” value was “NS”.

In the case of `Cl.Cl.Cl.O=C1CN(Cc2ccccn2)CC(=O)N1CCCN1CCN(c2ccc(F)cc2)CC1` [Example 7, 4-(2-Pyridylmethyl)-1-{3-[1-(4-fluorophenyl)-4-piperazinyl]propyl}-2,6-piperazinedione trihydrochloride], the “% ICAR (percentage inhibition of the conditioned avoidance response)” value was determined as 30% in test [3] (10 mg.kg^-1), 48% in test [3] (15 mg.kg^-1) and 79% in test [3] (20 mg.kg^-1). Moreover, in test [4] (i.p., 25 mg.kg^-1), the “% of non-killer animals” value is on record as 67%.

`Cl.Cl.O=C1CN(Cc2ccccc2)CC(=O)N1CCN1CCN(c2cccc(C(F)(F)F)c2)CC1` [Example 10, 4-Benzyl-1-{2-[1-(3-trifluoromethylphenyl)-4-piperazinyl]ethyl}-2,6-piperazinedione dihydrochloride]: in test [5] (5 mg.kg^-1), the “% variation in the unpunished responses” value is “+18%” and the “% variation in the punished responses” value is recorded as “+67%”. Besides, in test [4] (i.p., 25 mg.kg^-1), the “% of non-killer animals” value is on record as 66%. The change in vivo at 25 mg/kg in test [2] (setting [8]) worked out at 85%.

As for `COc1ccccc1CN1CC(=O)N(CCCN2CCN(c3ccc(C)cc3)CC2)C(=O)C1` [Example 14, 4-(2-Methoxybenzyl)-1-{3-[1-(4-methylphenyl)-4-piperazinyl]propyl}-2,6-piperazinedione], in test [5] (5 mg.kg^-1), the “% variation in the unpunished responses” value is “+14%” and the “% variation in the punished responses” value was “+48%”.

As to `COc1ccccc1CN1CC(=O)N(CCCN2CCN(c3cccc(C(F)(F)F)c3)CC2)C(=O)C1.Cl.Cl` [Example 15, 4-(2-Methoxybenzyl)-1-{3-[1-(3-trifluoromethylphenyl)-4-piperazinyl]propyl}-2,6-piperazinedione dihydrochloride], in test [5] (10 mg.kg^-1), the “% variation in the unpunished responses” value was “+37%” and the “% variation in the punished responses” value is “+41%”. In test [1] (i.p., 10 mg.kg^-1), the “% variation in the rearing movements” value was -43% and the “% variation in the steps climbed” value is “NS”. For the same compound, in test [1] (i.p., 20 mg.kg^-1), the “% variation in the rearing movements” value is listed as -64% and the “% variation in the steps climbed” value is recorded as “NS”. For the same compound, the “% of non-killer animals” value in test [4] (i.p., 25 mg.kg^-1) was found to be 64%. The change in vivo at 20 mg/kg in test [2] (Mus musculus, ip, i.p., 20 mg.kg^-1, read-out: % increase in the responses (transitions)) was found to be 52%. In test [2] (10 mg.kg^-1), the “% increase in the responses” value was found to be 61%. In addition, the “% increase in the responses” value in test [2] (50 mg.kg^-1) came out at 90%.

For `COc1ccccc1CN1CC(=O)N(CCN2CCN(c3cccc(C(F)(F)F)c3)CC2)C(=O)C1` [Example 16, 4-(2-Methoxybenzyl)-1-{2-[1-(3-trifluoromethylphenyl)-4-piperazinyl]ethyl}-2,6-piperazinedione trihydrochloride], the change in vivo at 10 mg/kg in test [2] (setting [9]) was determined as 41%.

With `Cl.Cl.Cl.O=C1CN(Cc2ccccn2)CC(=O)N1CCCN1CCN(c2ccccc2Cl)CC1` [Example 17, 4-(2-Pyridylmethyl)-1-{3-[1-(2-chlorophenyl)-4-piperazinyl]propyl}-2,6-piperazinedione trihydrochloride], the ED50 in test [6] was 6.11 mg/kg.

As to `COc1ccccc1N1CCN(CCCN2C(=O)CN(Cc3ccccn3)CC2=O)CC1.Cl.Cl.Cl.Cl` [Example 18, 4-(2-Pyridylmethyl)-1-{3-[1-(2-methoxyphenyl)-4-piperazinyl]propyl}-2,6-piperazinedione tetrahydrochloride], the “% ICAR (percentage inhibition of the conditioned avoidance response)” value in test [3] (10 mg.kg^-1) is given as 18%; in test [3] (15 mg.kg^-1) it was 35%; in test [3] (dose not printed in this line), 56%.

As to `Cc1ccc(N2CCN(CCCN3C(=O)CN(Cc4ccccn4)CC3=O)CC2)cc1.Cl.Cl.Cl` [Example 20, 4-(2-Pyridylmethyl)-1-{3-[1-(4-methylphenyl)-4-piperazinyl]propyl}-2,6-piperazinedione trihydrochloride], in test [1] (i.p., 2,5 mg.kg^-1), the “% variation in the rearing movements” value was -43% and the “% variation in the steps climbed” value is reported as “NS”.

In the case of `Cl.Cl.Cl.O=C1CN(Cc2cccnc2)CC(=O)N1CCCN1CCN(c2cccc(Cl)c2)CC1` [Example 22, 4-(3-Pyridylmethyl)-1-{3-[1-(3-chlorophenyl)-4-piperazinyl]propyl}-2,6-piperazinedione trihydrochloride], the “% of non-killer animals” value in test [4] (i.p., 12,5 mg.kg^-1) was 83%. Also, in test [2] (setting [9]), the change in vivo at 10 mg/kg worked out at 44%.

On to `Cc1ccccc1N1CCN(CCCN2C(=O)CN(C(c3ccccc3)c3ccccc3)CC2=O)CC1` [Example 23, 4-Diphenylmethyl-1-{3-[1-(2-methylphenyl)-4-piperazinyl]propyl}-2,6-piperazinedione trimethanesulfonate], for which, in test [2] (setting [9]), the change in vivo at 10 mg/kg was 47%. In addition, the change in vivo at 25 mg/kg in test [2] (setting [8]) amounted to 77%.

With `O=C1CN(C(c2ccccc2)c2ccccc2)CC(=O)N1CCCN1CCN(c2cccc(C(F)(F)F)c2)CC1` [Example 24, 4-Diphenylmethyl-1-{3-[1-(3-trifluoromethylphenyl)-4-piperazinyl]propyl}-2,6-piperazinedione dimandelate], the change in vivo at 25 mg/kg in test [2] (setting [8]) worked out at 62%.

As to `O=C1CN(C(c2ccccc2)c2ccc(Cl)cc2)CC(=O)N1CCCN1CCN(c2cccc(C(F)(F)F)c2)CC1` (centres unmarked) [Example 26, 4-(4-Chlorodiphenylmethyl)-1-{3-[1-(3-trifluoromethylphenyl)-4-piperazinyl]propyl}-2,6-piperazinedione dicitrate], the “% increase in the responses” value in test [2] (25 mg.kg^-1) is 69%.

Turning to `O=C1CN(C2CCCCC2)CC(=O)N1CCCN1CCN(c2cccc(C(F)(F)F)c2)CC1` [Example 27, 4-Cyclohexyl-1-{3-[1-(3-trilfuoromethylphenyl)-4-piperazinyl]propyl}-2,6-piperazinedione dihydrochloride], in test [1] (i.p., 2,5 mg.kg^-1), the “% variation in the rearing movements” value is listed as -41% and the “% variation in the steps climbed” value was “NS”. In addition, the change in vivo at 25 mg/kg in test [2] (setting [8]) is 73%.

For `O=C1CN(CCCN2CCN(c3cccc(C(F)(F)F)c3)CC2)CC(=O)N1Cc1ccccc1` [Example 28, 1-Benzyl-4-{3-[1-(3-trifluoromethylphenyl)-4-piperazinyl]propyl}-2,6-piperazinedione diphosphate], the change in vivo at 25 mg/kg in test [2] (setting [8]) was 82%.

As to `COc1cccc(CN2C(=O)CN(CCCN3CCN(c4cccc(C(F)(F)F)c4)CC3)CC2=O)c1` [Example 29, 1-(3-Methoxybenzyl)-4-{3-[1-(3-trifluoromethylphenyl)-4-piperazinyl]propyl}-2,6-piperazinedione diphosphate], in test [2] (setting [8]), the change in vivo at 25 mg/kg came to 49%.

In the case of `O=C1CN(Cc2ccccc2F)CC(=O)N1CCCN1CCN(c2ccc(C(F)(F)F)cn2)CC1` [Example 30, 4-(2-Fluorobenzyl)-1-{3-[1-(5-trifluoromethyl-2-pyridinyl)-4-piperazinyl]propyl}-2,6-piperazinedione dihydrochloride], the change in vivo at 5 mg/kg in test [2] (setting [7]) was 40%.
